ChEMBL document CHEMBL1201862, “PubChem BioAssay data set” (2004)
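Where inhibition never reached the appropriate level, the endpoint shown equals the highest concentration tested. Otherwise, values were interpolated linearly from a five-concentration, 48-hour dose response in 96-well plates. The concentration for 50% growth inhibition is given as GI50.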 Activity calls are given as the source filed them. Rule as the data show it: active = GI50 up to about 1.1 µM and inactive = higher.

Legend:
Test in all cases: inhibition of tumour cell growth, NCI panel, 48 h
TK-10 = tested on: TK-10
IGROV-1 = tested on: IGROV-1
HT-29 = tested on: HT-29
HL-60 = tested on: HL-60
SF-539 = tested on: SF-539
SN12C = tested on: SN12C
HOP-92 = tested on: HOP-92
RPMI-8226 = tested on: RPMI-8226
KM12 = tested on: KM12
OVCAR-8 = tested on: OVCAR-8
SK-MEL-2 = tested on: SK-MEL-2
MOLT-4 = tested on: MOLT-4
KM-20L2 = tested on: KM-20L2
786-0 = tested on: 786-0
ACHN = tested on: ACHN
SK-MEL-28 = tested on: SK-MEL-28
SF-268 = tested on: SF-268
Malme-3M = tested on: Malme-3M
MDA-N = tested on: MDA-N
MDA-MB-435 = tested on: MDA-MB-435

Measured: GI50

c1ccc(-c2csc3ncn4cnnc4c23)cc1
inactive: TK-10 84.3 µM | IGROV-1 77.8 µM | HT-29 > 100 µM | HL-60 86.1 µM | SF-539 > 100 µM | SN12C 81.7 µM | HOP-92 24.6 µM | RPMI-8226 59.6 µM | KM12 > 100 µM | OVCAR-8 > 100 µM | SK-MEL-2 24.8 µM | MOLT-4 44.1 µM | KM-20L2 > 100 µM | 786-0 55.7 µM | ACHN 33.6 µM | SK-MEL-28 > 100 µM

CCCCCCCCCC(=O)CC(=O)c1c(O)cccc1O
inactive: TK-10 41.8 µM | IGROV-1 32.3 µM | HT-29 27.3 µM | HL-60 21.4 µM | SF-539 45.4 µM | SN12C 24.4 µM | RPMI-8226 25.6 µM | KM12 35.1 µM | OVCAR-8 38 µM | SF-268 33.8 µM | SK-MEL-2 30.6 µM | MOLT-4 31 µM | KM-20L2 33.8 µM | 786-0 18.7 µM | Malme-3M 35.2 µM | ACHN 27.4 µM | SK-MEL-28 62.7 µM

COc1nc2c(nc(N)n2C2OC(CO)C(O)C(O)C2O)c(=O)n1C (centres undefined)
inactive: TK-10 > 100 µM | IGROV-1 > 100 µM | HT-29 > 100 µM | HL-60 > 100 µM | SF-539 > 100 µM | SN12C > 100 µM | HOP-92 > 100 µM | KM12 > 100 µM | OVCAR-8 > 100 µM | SF-268 > 100 µM | KM-20L2 > 100 µM | 786-0 > 100 µM | Malme-3M > 100 µM | ACHN > 100 µM | SK-MEL-28 > 100 µM

Oc1c(-c2ccccc2)nc2ccccn12
inactive: TK-10 > 100 µM | IGROV-1 > 100 µM | HT-29 > 100 µM | HL-60 > 100 µM | SF-539 > 100 µM | SN12C > 100 µM | KM12 > 100 µM | OVCAR-8 > 100 µM | SF-268 > 100 µM | SK-MEL-2 > 100 µM | MOLT-4 > 100 µM | KM-20L2 > 100 µM | 786-0 > 100 µM | Malme-3M > 100 µM | ACHN > 100 µM | SK-MEL-28 > 100 µM

O=C1O[C@@H](c2ccc3c(c2)OCO3)C2C(=O)O[C@@H](c3ccc4c(c3)OCO4)C12 (some centres undefined)
inactive: TK-10 > 100 µM | IGROV-1 > 100 µM | HT-29 > 100 µM | HL-60 > 100 µM | SF-539 > 100 µM | SN12C > 100 µM | HOP-92 > 100 µM | RPMI-8226 > 100 µM | KM12 > 100 µM | OVCAR-8 > 100 µM | SF-268 > 100 µM | SK-MEL-2 > 100 µM | MOLT-4 > 100 µM | KM-20L2 > 100 µM | 786-0 > 100 µM | ACHN > 100 µM | SK-MEL-28 > 100 µM

CC(C)=CCc1cc(C2COc3cc4c(c(O)c3C2=O)C=CC(C)(C)O4)c(O)cc1O (centres undefined)
inactive: TK-10 16.8 µM | IGROV-1 16.2 µM | HT-29 16.6 µM | HL-60 8.63 µM | SF-539 16.5 µM | SN12C 13.5 µM | HOP-92 16.7 µM | RPMI-8226 6.43 µM | KM12 14.9 µM | MDA-N 14.4 µM | OVCAR-8 21.5 µM | SF-268 13.2 µM | SK-MEL-2 17.7 µM | MOLT-4 5.61 µM | MDA-MB-435 16 µM | 786-0 19 µM | Malme-3M 13.4 µM | ACHN 16.7 µM | SK-MEL-28 22.4 µM

Cc1cccc(NC(=O)CSc2nnc(-c3ccc(/N=C\c4ccc(Cl)cc4)cc3)o2)c1
inactive: TK-10 > 100 µM | HT-29 > 100 µM | HL-60 > 100 µM | SN12C > 100 µM | RPMI-8226 > 100 µM | KM12 > 100 µM | OVCAR-8 > 100 µM | SF-268 > 100 µM | SK-MEL-2 > 100 µM | MOLT-4 > 100 µM | KM-20L2 > 100 µM | 786-0 > 100 µM | Malme-3M > 100 µM | ACHN > 100 µM | SK-MEL-28 > 100 µM

CC1OC(O[C@@H]2OC=C(C=O)[C@@]3(O)CC[C@H](C)[C@@H]23)C(O)C(O)C1O (some centres undefined)
inactive: TK-10 > 100 µM | IGROV-1 > 100 µM | HT-29 > 100 µM | HL-60 > 100 µM | SF-539 > 100 µM | SN12C > 100 µM | HOP-92 > 100 µM | RPMI-8226 > 100 µM | KM12 > 100 µM | MDA-N > 100 µM | OVCAR-8 > 100 µM | SF-268 > 100 µM | SK-MEL-2 > 100 µM | MOLT-4 > 100 µM | MDA-MB-435 > 100 µM | 786-0 > 100 µM | Malme-3M > 100 µM | ACHN > 100 µM | SK-MEL-28 > 100 µM

CCOC(=O)NC(=O)c1cn(CCCCCCCCCCC(=O)NCCCN2CCN(CCCNC(=O)CCCCCCCCCCn3cc(C(=O)NC(=O)OCC)c(=O)[nH]c3=O)CC2)c(=O)[nH]c1=O
inactive: TK-10 > 100 µM | HT-29 > 100 µM | HL-60 > 100 µM | SF-539 > 100 µM | SN12C > 100 µM | HOP-92 > 100 µM | KM12 > 100 µM | OVCAR-8 > 100 µM | SF-268 > 100 µM | SK-MEL-2 > 100 µM | MOLT-4 > 100 µM | KM-20L2 > 100 µM | 786-0 > 100 µM | Malme-3M > 100 µM | ACHN > 100 µM | SK-MEL-28 > 100 µM

C/C(=N\NC(N)=S)c1ccc(/C(C)=N/NC(N)=S)cc1
inactive: TK-10 > 100 µM | IGROV-1 > 100 µM | HT-29 > 100 µM | HL-60 > 100 µM | SF-539 > 100 µM | SN12C > 100 µM | HOP-92 > 100 µM | RPMI-8226 > 100 µM | KM12 > 100 µM | OVCAR-8 > 100 µM | SF-268 > 100 µM | MOLT-4 > 100 µM | KM-20L2 > 100 µM | 786-0 > 100 µM | Malme-3M > 100 µM | ACHN > 100 µM | SK-MEL-28 > 100 µM

COC(=O)C(CCC1(C)OCCO1)=[N+]=[N-]
inactive: TK-10 > 100 µM | IGROV-1 > 100 µM | HT-29 > 100 µM | HL-60 > 100 µM | SF-539 > 100 µM | SN12C > 100 µM | KM12 > 100 µM | OVCAR-8 > 100 µM | SF-268 > 100 µM | SK-MEL-2 > 100 µM | MOLT-4 > 100 µM | KM-20L2 > 100 µM | 786-0 > 100 µM | Malme-3M > 100 µM | ACHN > 100 µM | SK-MEL-28 > 100 µM

c1cc(C2O[C@H]3CCCN3[C@@H]2c2ccncc2)ccn1 (some centres undefined)
inactive: TK-10 > 100 µM | IGROV-1 > 100 µM | HT-29 > 100 µM | SF-539 > 100 µM | SN12C > 100 µM | RPMI-8226 > 100 µM | KM12 > 100 µM | OVCAR-8 > 100 µM | SF-268 > 100 µM | SK-MEL-2 > 100 µM | MOLT-4 > 100 µM | KM-20L2 > 100 µM | 786-0 > 100 µM | Malme-3M > 100 µM | ACHN > 100 µM | SK-MEL-28 > 100 µM
